Data: the NIST ThermoML archive (doi:10.1016/j.jct.2018.11.010)

Assay: xn = mol fraction of the nth substance listed
Conditions: Liquid, Vibrating tube method

CCCCCCCO [heptan-1-ol] + CCCCOCCCC
mass density [kg/m3]
Conditions	x2 = 0	x2 = 0.1488	x2 = 0.3201	x2 = 0.4944	x2 = 0.7014	x2 = 0.8534
298.15 K, 100 kPa	818.7	810.1	800.3	790.9	779.5	771.7
298.15 K, 1000 kPa	819.3	810.8	801	791.6	780.2	772.5
298.15 K, 5000 kPa	821.9	813.5	803.9	794.6	783.5	775.8
298.15 K, 10000 kPa	824.9	816.7	807.3	798.3	787.3	779.9
298.15 K, 15000 kPa	828	819.9	810.6	801.8	791	783.7
298.15 K, 20000 kPa	830.8	822.9	813.8	805	794.5	787.4
298.15 K, 25000 kPa	833.5	825.8	816.9	808.3	797.9	790.8
298.15 K, 30000 kPa	836.3	828.6	819.8	811.4	801.1	794.2
298.15 K, 35000 kPa	838.8	831.2	822.6	814.3	804.2	797.4
298.15 K, 40000 kPa	841.3	833.9	825.3	817.1	807.3	800.5
298.15 K, 45000 kPa	843.8	836.5	828	819.9	810.2	803.5
298.15 K, 50000 kPa	846.2	838.9	830.6	822.6	813	806.4
298.15 K, 55000 kPa	848.5	841.3	833.1	825.3	815.7	809.2
298.15 K, 60000 kPa	850.8	843.7	835.5	827.8	818.4	811.9
298.15 K, 65000 kPa	853	845.9	837.9	830.3	820.9	814.6
298.15 K, 70000 kPa	855.2	848.2	840.3	832.7	823.5	817.2
298.15 K, 80000 kPa	859.4	852.6	844.8	837.3	828.3	822.2
298.15 K, 90000 kPa	863.5	856.7	849.1	841.9	833	827
298.15 K, 100000 kPa	867.3	860.7	853.2	846.1	837.4	831.5
298.15 K, 110000 kPa	871.1	864.6	857.2	850.2	841.6	835.8
298.15 K, 120000 kPa	874.6	868.2	861	854	845.6	839.9
298.15 K, 130000 kPa	878.1	871.8	864.6	857.8	849.6	843.9
298.15 K, 140000 kPa	881.5	875.3	868.2	861.4	853.3	847.8
313.15 K, 100 kPa	808	799	788.8	778.9	767	758.8
313.15 K, 1000 kPa	808.6	799.7	789.5	779.7	767.8	759.7
313.15 K, 5000 kPa	811.4	802.6	792.5	783	771.3	763.3
313.15 K, 10000 kPa	814.7	806.1	796.3	786.9	775.6	767.8
313.15 K, 15000 kPa	817.9	809.5	799.8	790.7	779.5	771.9
313.15 K, 20000 kPa	821	812.7	803.3	794.3	783.4	775.9
313.15 K, 25000 kPa	823.8	815.6	806.4	797.5	786.8	779.4
313.15 K, 30000 kPa	826.8	818.8	809.7	801	790.5	783.3
313.15 K, 35000 kPa	829.5	821.6	812.7	804.2	793.7	786.7
313.15 K, 40000 kPa	832.1	824.4	815.5	807.1	796.9	790
313.15 K, 45000 kPa	834.7	827	818.3	810.1	800	793.2
313.15 K, 50000 kPa	837.2	829.7	821.1	812.9	803	796.3
313.15 K, 55000 kPa	839.7	832.3	823.8	815.7	805.9	799.3
313.15 K, 60000 kPa	842.1	834.8	826.4	818.4	808.7	802.2
313.15 K, 65000 kPa	844.4	837.2	828.9	821	811.5	804.9
313.15 K, 70000 kPa	846.7	839.6	831.3	823.5	814.1	807.7
313.15 K, 80000 kPa	851.1	844	836	828.4	819.1	812.9
313.15 K, 90000 kPa	855.3	848.4	840.6	833.2	824	817.9
313.15 K, 100000 kPa	859.3	852.5	844.8	837.5	828.7	822.6
313.15 K, 110000 kPa	863.2	856.6	849.1	841.8	833.2	827.2
313.15 K, 120000 kPa	867	860.4	853	845.9	837.3	831.5
313.15 K, 130000 kPa	870.6	864.2	856.9	849.9	841.4	835.7
313.15 K, 140000 kPa	874.2	867.8	860.6	853.7	845.4	839.8
333.15 K, 100 kPa	793.3	783.8	772.9	762.5	749.9	741.3
333.15 K, 1000 kPa	794	784.6	773.7	763.4	750.8	742.3
333.15 K, 5000 kPa	797.1	787.8	777.2	767.1	754.8	746.5
333.15 K, 10000 kPa	800.7	791.7	781.4	771.5	759.6	751.4
333.15 K, 15000 kPa	804.3	795.4	785.3	775.8	764.1	756.1
333.15 K, 20000 kPa	807.7	798.9	789.1	779.6	768.3	760.5
333.15 K, 25000 kPa	810.8	802.3	792.6	783.4	772.2	764.7
333.15 K, 30000 kPa	813.9	805.5	796	787	776.1	768.6
333.15 K, 35000 kPa	816.9	808.7	799.3	790.4	779.7	772.4
333.15 K, 40000 kPa	819.8	811.7	802.5	793.7	783.2	776.1
333.15 K, 45000 kPa	822.4	814.5	805.5	796.9	786.5	779.5
333.15 K, 50000 kPa	825.2	817.4	808.5	800	789.8	782.9
333.15 K, 55000 kPa	827.8	820.1	811.3	802.9	792.9	786
333.15 K, 60000 kPa	830.3	822.7	814.1	805.8	795.9	789.2
333.15 K, 65000 kPa	832.9	825.3	816.8	808.6	798.9	792.2
333.15 K, 70000 kPa	835.3	827.9	819.5	811.4	801.7	795.1
333.15 K, 80000 kPa	839.9	832.7	824.4	816.6	807.1	800.7
333.15 K, 90000 kPa	844.5	837.4	829.3	821.6	812.3	806
333.15 K, 100000 kPa	848.7	841.7	833.8	826.3	817.2	811.1
333.15 K, 110000 kPa	852.8	845.9	838.2	830.8	821.9	815.9
333.15 K, 120000 kPa	856.8	850	842.3	835.1	826.4	820.5
333.15 K, 130000 kPa	860.5	853.9	846.4	839.3	830.7	824.8
333.15 K, 140000 kPa	864.3	–	–	–	–	–
